# Where two headings read alike, the source gives them in different places. Marks after values point to notes of the source that are not given here.
# Assays:
# [1] = tested on: skin wounds infected by Streptococcus and Staphylococcus; assay: Treatment of infected wounds, human volunteers; assay type: in vivo; settings: 0.1% ointment for 3 days
# Procedure: Human volunteers suffering from skin wounds infected by Streptococcus and Staphylococcus were treated with 0.1% Compounds (1) and (2) in an ointment base of vaseline, sheep fat, and sulfoxide.
# [2] = tested on: C. jejuni 541-3; assay: MIC/MMC against clinical strains of Campylobacter spp.; settings: Table 18; clinical strain isolated from humans
# [3] = tested on: Proteus vulgaris RMIT; assay: NCCLS broth microdilution MIC/MBC; assay type: cell-based; settings: for MIC: Proteus vulgaris
# [4] = tested on: Escherichia coli ATCC 25922; assay: NCCLS broth microdilution MIC/MBC; assay type: cell-based; settings: for MIC: Escherichia coli, ATCC25922, read-out: MIC
# [5] = tested on: Staphylococcus aureus B-685; assay: Sensitivity of strains: suppression of growth; assay type: cell-based; settings: Compound (1) 1.0%; antibiotics disc method
# [6] = tested on: Staphylococcus epidermidis BK-30; assay: Sensitivity of strains: suppression of growth; assay type: cell-based; settings: Compound (1) 1.0%; antibiotics disc method
# [7] = tested on: Enterococcus faecalis; assay: Agar plug diffusion, zone of retardation; settings: plug impregnated at 0.5%
# [8] = tested on: Klebsiella oxytoca; assay: Rate of kill, viable counts
# [9] = tested on: Paecilomyces variotii; assay: M38-P microdilution MIC/MFC; assay type: cell-based; settings: Table 16, 48 h, 35° C.
# [10] = tested on: Rhizopus stoloniefer; assay: M38-P microdilution MIC/MFC; assay type: cell-based; settings: Table 16, 48 h, 35° C.
# [11] = tested on: Staphylococci epidermidis B-513; assay: Agar diffusion assay
# [12] = tested on: Campylobacter spp.; assay: NCCLS broth microdilution MIC/MBC; assay type: cell-based; settings: Table 9, 48 h
# Text: (§1) NCCLS-USA Standard Method—Broth microdilution (or macrodilution) (Mueller-Hinton).
# (§2) Inoculum 1-4×10^4 cfu (or −4×10^5 cfu). Ciprofloxacin test control. Chlorhexidine values added for disinfectant and antiseptic activity comparison.
# [13] = tested on: Klebsiella oxytoca; assay: NCCLS broth microdilution MIC/MBC; assay type: cell-based; settings: for MIC: Klebsiella oxytoca
# Text: as §1, §2
# [14] = tested on: Clostridium difficile; assay: NCCLS broth microdilution MIC/MBC; assay type: cell-based; settings: Clostridioides difficile; Table 9
# Text: as §1, §2
# [15] = tested on: Acinetobacter calcoaceticus RMIT; assay: NCCLS broth microdilution MIC/MBC; assay type: cell-based; settings: for MIC: Acinetobacter calcoaceticus
# Text: as §1, §2
# [16] = tested on: Rhizopus stolonifer; assay: microbe, parasite or virus in culture; assay type: cell-based; settings: for MIC: Rhizopus stolonifer
# [17] = tested on: Bacillus subtilis; assay: Rate of kill, viable counts; settings: in 2 h
# [18] = tested on: Bacillus sp. B-575; assay: Sensitivity of strains: suppression of growth; assay type: cell-based; settings: Compound (1) 1.0%; antibiotics disc method; also: key: + sensitive strains; + moderately sensitive strains; − stable strains
# [19] = tested on: M. catarrhalis; assay: Antibacterial activity in the presence of blood, macrodilution; assay type: cell-based; settings: for MIC: Moraxella catarrhalis
# [20] = tested on: Campylobacter jejuni 54/1-2; assay: MIC/MMC against clinical strains of Campylobacter spp.; settings: Table 18; clinical strain isolated from humans
# [21] = tested on: Epidermophyton floccosum; assay: M38-P microdilution MIC/MFC; assay type: cell-based; settings: Table 16, Dermatophytes
# [22] = tested on: Salmonella paratyphi M-16469; assay: Sensitivity of strains: suppression of growth; assay type: cell-based; settings: Compound (1) 1.0%; antibiotics disc method
# [23] = tested on: Acinetobacter calcoaceticus; assay: Rate of kill, viable counts; settings: in 6 h
# [24] = tested on: Escherichia coli B-683; assay: Sensitivity of strains: suppression of growth; assay type: cell-based; settings: Compound (1) 1.0%; antibiotics disc method
# [25] = tested on: Bacillus subtilis RMIT; assay: NCCLS broth microdilution MIC/MBC; assay type: cell-based; settings: for MIC: Bacillus subtilis
# [26] = tested on: Acinetobacter B-681; assay: Sensitivity of strains: suppression of growth; assay type: cell-based; settings: Compound (1) 1.0%; antibiotics disc method
# [27] = tested on: Fusarium graminearum; assay: microbe, parasite or virus in culture; assay type: cell-based
# [28] = tested on: Corynebacterium B-670; assay: Agar diffusion assay; assay type: cell-based
# [29] = tested on: Pseudomonas; assay: Agar plug diffusion, zone of retardation; assay type: cell-based, Pseudonomas aeruginosa; settings: plug impregnated at 0.5%
# [30] = tested on: Aspergillus fumigatus; assay: M38-P microdilution MIC/MFC; assay type: cell-based; settings: Table 16, 48 h, 35° C.
structure (smiles),measurement,setting,value
C/C(=C\c1ccc2c(c1)OCO2)[N+](=O)[O-] [Compound (1)],clearing of infected wound,[1],cleared the wound completely of pus
same,MMC,[2],2
same,MIC,[3],128 µg/mL
same,MIC,[3]; 24 h,128 µg/mL
same,MMC,"[3]; Table 9, 35° C., 24 hours",256 µg/mL
same,MMC,"[3]; Table 17, 2 or 3 replicates",128 µg/mL
same,MIC,"[4]; Table 9, 35° C., 24 hours",> 512 µg/mL
same,MIC,"[4]; Table 17, 2 or 3 replicates",> 512 µg/mL
same,MMC,"[4]; Table 9, 35° C., 24 hours",>512 µg/mL
same,MMC,"[4]; Table 17, 2 or 3 replicates",>512 µg/mL
same,Suppression of Growth (+/−),[5],+
same,Suppression of Growth (+/−),[6],+
same,Size of zone of retardation of the growth,[7],6
same,Log reduction in viable count,[8]; 256 μg/mL,0
same,Log reduction in viable count,[8]; 512 μg/mL,0
same,MIC,"[9]; Paecilomyces variotii, read-out: MIC",1 µg/mL
same,MMC,[9],2 µg/mL
same,MIC,"[10]; Rhizopus, read-out: MIC",4 µg/mL
same,MMC,[10],16 µg/mL
same,Diameter of zone of Growth inhibition,[11]; Concentration in disc 0.1%,32# mm
same,Diameter of zone of Growth inhibition,[11]; Concentration in disc 1.0%,34# mm
same,Diameter of zone of Growth inhibition,[11]; Concentration in disc 2.0%,38# mm
same,MIC,[12]; Campylobacter,128 µg/mL
same,MMC,[12],128 µg/mL
same,MIC,"[13]; Table 9, 35° C., 24 hours",128 µg/mL
same,MIC,"[13]; Table 17, 2 or 3 replicates",128 µg/mL
same,MMC,"[13]; Table 9, 35° C., 24 hours",256 µg/mL
same,MMC,"[13]; Table 17, 2 or 3 replicates",256 µg/mL
same,MIC,[14],4 µg/mL
same,MIC,"[15]; Table 9, 35° C., 24 hours",128 µg/mL
same,MIC,"[15]; Table 17, 2 or 3 replicates",128 µg/mL
same,MMC,"[15]; Table 9, 35° C., 24 hours",256 µg/mL
same,MMC,"[15]; Table 17, 2 or 3 replicates",256 µg/mL
same,MIC,"[16]; Table 20, […], after 12 weeks continuous exposure, read-out: MIC Final",16 µg/mL
same,MIC,"[16]; Table 20, […], parent strain, read-out: MIC Initial",4 µg/mL
same,MIC,"[16]; before exposure, MHB, read-out: Standard MIC Initial",4 µg/mL
same,7-Day MIC Range,[16]; to Wk 5,4-32 to Wk 5 μg/mL
same,Log reduction in viable count,[17]; 256 μg/mL,3.8 in 2 h
same,Log reduction in viable count,[17]; 512 μg/mL,4 in 2 h
same,Suppression of Growth (+/−),[18],+
same,MMC,[19]; 5% blood,8 µg/mL
same,MMC,[19]; 10% plasma,8 µg/mL
same,MIC,[19]; 5% blood,4 µg/mL
same,MIC,[19]; 10% plasma,8 µg/mL
same,MIC,[19]; — (no plasma or blood),32 µg/mL
same,MMC,[20],2
same,MIC,[21]; Epidermophyton floccosum,0.5 µg/mL
same,MMC,[21],16 µg/mL
same,Suppression of Growth (+/−),[22],+
same,Log reduction in viable count,[23]; 256 μg/mL,1 in 6 h
same,Log reduction in viable count,[23]; 512 μg/mL,1 in 6 h
same,Suppression of Growth (+/−),[24],+
same,MIC,"[25]; Table 9, 35° C., 24 hours",16 µg/mL
same,MIC,"[25]; Table 17, 2 or 3 replicates",16 µg/mL
same,MMC,"[25]; Table 9, 35° C., 24 hours",16 µg/mL
same,MMC,"[25]; Table 17, 2 or 3 replicates",16 µg/mL
same,Suppression of Growth (+/−),[26],+
same,MIC,"[27]; Fusarium graminearum, 168 h",4 µg/mL
same,MMC,"[27]; Table 10, 7 day, 30° C.",8 µg/mL
same,Diameter of zone of Growth inhibition,[28]; Concentration in disc 0.1%,31# mm
same,Diameter of zone of Growth inhibition,[28]; Concentration in disc 1.0%,35# mm
same,Diameter of zone of Growth inhibition,[28]; Concentration in disc 2.0%,40# mm
same,Size of zone of retardation of the growth,[29],0
same,MIC,[30]; Aspergillus fumigatus,8 µg/mL
same,MMC,[30],32 µg/mL

# From patent US20150258059A1, “ANTIMICROBIAL AND RADIOPROTECTIVE COMPOUNDS” (BioDiem, Ltd, priority 2001, published 2015)
